The source of these data is article PMC6348446 (Journal of Medicinal Chemistry, 2018).

pEC50: −log10 of the molar value.

Series [1] relates to EOL-1 and A-204 cells. Kind of series: Cell viability/proliferation, ranges stated over EOL-1 and A-204. Type of series: cell-based. The conditions noted are these: Homo sapiens; EOL-1 and A-204, text; read-out: EC50 (cell viability), range. As for the experimental part: (§1) A-204 cells (1 × 10^3) were seeded per well of 384-well plates. After overnight incubation, compounds were added to the cells at logarithmic dose series using the HP digital dispenser D300 (Tecan), normalizing for added DMSO. 1 day and 8 days after seeding cellular ATP content was measured using CellTiterGlo (Promega). Measurements after 8 days were divided by the measurement after 1 day (i.e., the T0 plate) to derive fold proliferation. Data were analyzed with GraphPad Prism software to obtain EC50 values.

For series [2], the system named is EOL-1 cells. Kind of series: Cell viability/proliferation (cellular ATP, CellTiterGlo) in EOL-1. Type of series: cell-based. Particulars: Homo sapiens, EOL1; EOL-1, text; read-out: EC50 (cytotoxicity, cell viability).
For series [3], the system named is A-204 cells. Description: Cell viability/proliferation (cellular ATP, CellTiterGlo) in A-204. Format: cell-based. Particulars: Homo sapiens, A204; A-204 (printed A-402); read-out: EC50 (cytotoxicity, cell viability). As for the experimental part:
as §1

Series [4] in a line: CHI LogD determination (reverse-phase HPLC). Format: physicochemical. The conditions noted are these: reversed-phase HPLC (ACE Excel 3 SuperC18 column), pH 7.4; read-out: CHI LogD (pH7.4). As for the experimental part: (§2) removed from both acceptor and donor compartments and mixed with acetonitrile (80 µL) containing an internal standard. The samples were centrifuged (10 min, 5 °C, 3270 g) to sediment precipitated protein and sealed prior to UPLC-MS/MS analysis using a Xevo TQ-S Micro (Waters Corp, USA). Pe was calculated as shown in the below equation: […]
(§3) CA(t) = peak area of compound present in acceptor well at time t = 18000 s Cequi = [CD(t) x VD + CA(t) x VA] / (VD + VA)
(§4) VA = acceptor well volume
(§5) CD(t) = peak area of compound present in donor well at time t = 18000 s Recovery of compound from donor and acceptor wells was calculated and data was only accepted when recovery exceeded 70%.
Using a fast gradient, reverse-phase HPLC method to determine the chromatographic hydrophobicity index (CHI) was determined as described by Camurri and Zaramella (ref. 3) and Valko et al. (ref. 4). Briefly, by plotting the retention time of a set of reference […]
compounds against known CHI values. The CHI value of test compounds was then calculated according to their retention time.
Test compounds were prepared as 0.25 mM solutions in 50:50 acetonitrile:water and analysed by reversed-phase HPLC-UV (wavelength 254 nm) using a ACE Excel 3 SuperC18, 3 µm, 50 x 2.1 mm column with a gradient of aqueous phase (10 mM ammonium acetate, pH 7.4) and mobile phase (acetonitrile).
Intrinsic clearance (Cli) experiments
Test compound (0.5 µM) was incubated with female CD1 mouse or human (mixed gender) liver microsomes (Xenotech LLCTM; 0.5 mg/mL 50mM potassium phosphate buffer, pH7.4) and the reaction initiated with addition of excess NADPH (8 mg/mL 50 mM potassium phosphate buffer, pH7.4). Immediately, at time zero, then at 3, 6, 9, 15 and 30 minutes an aliquot (50 µL) of the incubation mixture was removed and mixed with acetonitrile (100 µL) to stop the reaction. Internal standard was added to all samples, the samples centrifuged to sediment precipitated protein and the plates then sealed prior to […] analysis using […]
a Xevo TQ-S Micro (Waters corporation, USA).
XLfit (IDBS, UK) was used to calculate the exponential decay and consequently the rate constant (k) from the ratio of peak area of test compound to internal standard at each timepoint. The rate of intrinsic clearance (CLi) of each test compound was then calculated using the following calculation:
CLi(mL/min/g liver) = k x V x Microsomal protein yield
Where V (mL/mg protein) is the incubation volume/mg protein added and microsomal protein yield is taken as 52.5 mg protein/ g liver. Verapamil (0.5 µM) was used as a positive control to confirm acceptable assay performance.

The nature of series [5]: Parallel Artificial Membrane Permeability Assay (PAMPA). Format: in vitro ADME. As for the experimental part:
Test compound (10 µM) was incubated in pre-warmed plasma at 37 ᵒC (that is buffered to pH 7.4 in ratio of 70:30 plasma to buffer). Immediately, at time zero, then at 30, 60, 120, and 180 min, a 50 µL aliquot of the incubation mixture was removed and mixed with 200 µL acetonitrile containing Donepezil as the internal standard (50 ng/ml) to stop the reaction. The samples were centrifuged to sediment the precipitated protein and the plates then sealed prior to UPLC-MS/MS analysis using a Xevo TQ-S Micro (Waters Corporation, USA).
XLfit (IDBS, UK) was used to calculate the exponential decay and consequently the rate constant (k) from the ratio of peak area of test compound to internal standard at each time point. The half-life was calculated for each test compound from the rate by using the […]
Parallel Artificial Membrane Permeability Assay (PAMPA)
PAMPA was performed using a 96-well pre-coated BD Gentest™ PAMPA plate (BD Biosciences, U.K.). Each well was divided into two chambers; donor and acceptor, separated by a lipid-oil-lipid tri-layer constructed in a porous filter. The effective permeability, Pe, of the compound was measured at pH 7.4. Stock solutions (5 mM) of the compound were prepared in DMSO. The compound was then further diluted to 10 µM in phosphate buffered […]
saline at pH 7.4. […] The compound […]
dissolved in phosphate buffered saline was then added to the donor side of the membrane and phosphate buffered saline without compound was added to the acceptor side. The PAMPA plate was left at room temperature for 5 h. After which time, an aliquot (100 µL) was then […]
as §2, §3, §4, §5
Using a fast gradient, reverse-phase HPLC method to determine the chromatographic hydrophobicity index (CHI) was determined as described by Camurri and Zaramella (ref. 3) and Valko et al. (ref. 4). Briefly, by plotting the retention time of a set of reference

Turning to `COc1cc(-c2cn(C)c(=O)c3cnccc23)cc(OC)c1CN(C)C` [Compound 1a], the pEC50 in series [1] was 6.47 to 7.05.
The same measure, in the same setting: then `COc1cc(-c2cn(C)c(=O)c3cnccc23)c(OC)cc1CN(C)C` [Compound 1b], with 5.45 to 6.43.
With `COc1cc(-c2cn(C)c(=O)c3cnccc23)cc(OC)c1CN(C)CC(=O)NCCOCCOCCNc1cccc2c1C(=O)N(C1CCC(=O)NC1=O)C2=O` (centres unmarked) [Compound 21, reference compound], the pEC50 in series [2] is 8.30; in series [3], 7.05.
As to `COc1cc(-c2cn(C)c(=O)c3cnccc23)cc(OC)c1CN1CCN(CCOCCOc2cc(-c3scnc3C)ccc2CNC(=O)[C@@H]2C[C@@H](O)CN2C(=O)[C@@H](NC(=O)C2(F)CC2)C(C)(C)C)CC1` [Compound 46, (2S,4R)-N-(2-(2-(2-(4-(2,6-Dimethoxy-4-(2-methyl-1-oxo-1,2-dihydro-2,7-naphthyridin-4-yl)benzyl)piperazin-1-yl)ethoxy)ethoxy)-4-(4-methylthiazol-5-yl)benzyl)-1-((S)-2-(1-fluorocyclopropane-1-carboxamido)-3,3-dimethylbutanoyl)-4-hydroxypyrrolidine-2-carboxamide], the chromatographic logD in series [4] turned out to be 2. The molecule further returned a recovery at 5 h, 10 µM in series [5] (PAMPA, pH 7.4) of 88%. Further, in series [5] (PAMPA, pH 7.4, 5 h, read-out: PAMPA pH 7.4 Pe), the Papp at 5 h, 10 µM amounted to 0.002 ×10⁻⁶ cm/s. Besides, the “PAMPA pH 7.4 HIGH/MED/LOW” value in series [5] (pH 7.4, permeability class) was “LOW and low cell permeability”.
